This note sets out measurements from paper PMC11243320, “Tailoring Fibroblast-Activation Protein Targeting for Theranostics: A Comparative Preclinical Evaluation of the ^68Ga- and ^177Lu-Labeled Monomeric and Dimeric Fibroblast-Activation Protein Inhibitors DOTA.SA.FAPi and DOTAGA.(SA.FAPi)2” (Molecules, 2024).

One data set deals with healthy mice. Description: Biodistribution in healthy male and female mice. The class given is in vivo. To be noted: 1 h p.i. Here is the method:
Two groups of healthy mice (males and females; n = 4/group) were injected with 10 pmol of [^68Ga]Ga-DOTA.SA.FAPi (0.08–0.1 MBq) in 100 µL of NaCl 0.9% and biodistribution studies were conducted at 1 h p.i. (Supplemental Data).

A further data set relates to CAFs. The experiment in a line: Externalization studies in CAFs. The class given is cell-based, human. As to conditions: after 24 h at 37 °C. How it is done:
For saturation studies, CAFs were incubated with increasing concentrations of the radiotracers (0.1–10 nM). For internalization studies, approximately 2.5 pmol of the radiotracers were added to CAFs followed by incubation for 15, 30, 60, 90, 120, 180 and 240 min for the ^68Ga-labeled or 30, 60, 120, 240 and 360 min for the ^177Lu-labeled radiotracers at 37 °C, 5% CO2. For the externalization studies, approximately 2.5 pmol of the ^177Lu-labeled radiotracers were added to CAFs followed by incubation for 2 h at 37 °C, 5% CO2. Afterward, the amount of the externalized activity from the CAFs was determined at 0, 10, 20, 30, 60, 120, 240, and 1440 min (Supplemental Data).
Saturation Binding Studies […]
At each time point, the internalization was stopped by putting the plates on ice, removing the me-dium, and washing the cells twice with ice-cold PBS. […] The radioactivity of the culture medium, the receptor bound, and the internal-ized fractions were measured in a γ-counter.
The externalization rate of [177Lu]Lu-DOTA.SA.FAPi and [177Lu]Lu-DOTAGA.(SA.FAPi)2 was studied af-ter CAFs were incubated for 2 h with 2.5 pmol/well of each 177Lu-lebeled radioligand. […] The radioactivity of the culture medium, the receptor bound , the internalized and the externalized fractions were measured in a γ -counter. […]

In the case of `N#C[C@@H]1CC(F)(F)CN1C(=O)CNC(=O)c1ccnc2ccc(OCCCCNc3c(NCCNC(=O)CN4CCN(CC(=O)[O-])CCN(CC(=O)[O-])CCN(CC(=O)[O-])CC4)c(=O)c3=O)cc12.[68Ga+3]` [[^68Ga]Ga-DOTA.SA.FAPi], in the data set on healthy mice (healthy female mice), the “Biodistribution Blood” value stood at 13.5 ± 4.1 % IA/g, the “Biodistribution Bone” value amounted to 5.0 ± 0.2 % IA/g, the “Biodistribution Heart” value was 5.1 ± 0.9 % IA/g and the “Biodistribution Intestine” value is given as 3.0 ± 0.3 % IA/g. Moreover, in the data set with healthy mice (healthy female mice), the “Biodistribution Kidney” value is recorded as 5.0 ± 0.7 % IA/g, the “Biodistribution Liver” value is 3.3 ± 0.4 % IA/g, the “Biodistribution Lung” value was 4.3 ± 1.6 % IA/g and the “Biodistribution Muscle” value came out at 6.3 ± 3.4 % IA/g. In the data set with healthy mice (healthy female mice), the “Biodistribution Pancreas” value was found to be 7.6 ± 2.6 % IA/g, the “Biodistribution Spleen” value is given as 2.7 ± 0.7 % IA/g and the “Biodistribution Stomach” value was found to be 1.7 ± 0.04 % IA/g. In the data set on healthy mice (healthy male mice), the “Biodistribution Blood” value is 8.5 ± 0.1 % IA/g, the “Biodistribution Bone” value came to 1.5 ± 0.9 % IA/g, the “Biodistribution Heart” value was 3.1 ± 0.04 % IA/g and the “Biodistribution Intestine” value was determined as 3.1 ± 0.2 % IA/g. Moreover, in the data set on healthy mice (healthy male mice), the “Biodistribution Kidney” value is 3.5 ± 0.4 % IA/g, the “Biodistribution Liver” value turned out to be 2.3 ± 0.1 % IA/g, the “Biodistribution Lung” value came to 2.7 ± 0.6 % IA/g and the “Biodistribution Muscle” value is on record as 2.0 ± 0.3 % IA/g. Also, in the data set on healthy mice (healthy male mice), the “Biodistribution Pancreas” value was determined as 8.6 ± 0.1 % IA/g, the “Biodistribution Spleen” value was found to be 2.3 ± 0.1 % IA/g and the “Biodistribution Stomach” value turned out to be 2.0 ± 0.3 % IA/g.
For the molecule `N#C[C@@H]1CC(F)(F)CN1C(=O)CNC(=O)c1ccnc2ccc(OCCCCNc3c(NCCNC(=O)CN4CCN(CC(=O)[O-])CCN(CC(=O)[O-])CCN(CC(=O)[O-])CC4)c(=O)c3=O)cc12.[177Lu+3]` [[^177Lu]Lu-DOTA.SA.FAPi], in the data set on CAFs, the “Total internalized activity released from the CAFs into the medium” value is recorded as “more than 93%” and the “Total internalized activity remaining in the CAFs” value is recorded as 7%.
